Data taken from patent US12233060B2, “Inhibitors of Ataxia-Telangiectasia Mutated and Rad3-related protein kinase (ATR) for use in methods of treating cancer” (THE INSTITUTE OF CANCER RESEARCH: ROYAL CANCER HOSPITAL, priority 2016, dated 2025).

What was measured:
HCT116 cells = assay: DNA fibre analysis, replication fork speed in HCT116 cells with SS18-SSX1; format: cell-based, human; details: 0.1 μM for two hours
Description: FIG. 10. ATR inhibitors elicit replication fork stress in SS tumour cells. […] Error bars represent SEM from triplicate experiments. p values were derived from Student's t tests. B. Western blot illustrating PARP1 cleavage in SYO1 cells exposed to VX970 for 24 hours. C. Western blot illustrating H2AX phosphorylation (γH2AX) in SYO1 cells exposed to VX970 (0.1 μM). D. Confocal microspcopy images illustrating H2AX phosphorylation in SYO1 cells exposed to VX970 (0.1 μM, 24 hours). E. Bar chart depicting data from (D). Error bars represent SEM from 100 images. p values were derived from Student's t tests. F. Replication fork speeds in SYO1 cells exposed to 0.1 μM VX970 for two hours. p value was derived from a Student's t test. G. Replication fork speeds in HCT116 cells exposed to 0.1 μM VX970 for two hours in the presence and absence of ectopic expression of a SS18-SSX1 fusion protein. p values were derived from Student's t tests. Expression of SS18-SSX1 or exposure to VX970 reduced fork speed. Combined SS18-SSX1 expression and VX970 exposure enhanced the reduction in fork speed. H and I. FACS plots from SYO1 cells exposed to VX970.
ATRi induced cytotoxicity in tumour cells derived from carcinomas is often associated with an increase in replication fork stress.

[1] = test system: HCT116 ARID1A+/+ xenografts; assay: In vivo efficacy, HCT116 ARID1A+/+ subcutaneous xenografts; design: species or system mice
Description: (§1) FIG. 3. In vivo ARID1A/ATR synthetic lethality. A. Schematic of VX-970 therapy experiment in mice bearing established HCT116 ARID1A^+/+ and ARID1A^−/− xenografts. Cells were inoculated subcutaneously into nude mice and tumors allowed to establish for 10 days. Mice were then randomized to treatment regimens of either VX-970 (60 mg/kg, 4× weekly by oral gavage) or vehicle. Mice were then treated for a subsequent 40 days. Tumor volume was monitored twice weekly. B. Relative tumor volume plot from (A) showing efficacy of VX-970 and selectivity for ARID1A^−/− xenografts* p=0.024, ANOVA. C. Schematic of tumor incidence experiment in mice with non-established HCT116 ARID1A^+/+ and ARID1A^−/− xenografts. Mice were inoculated with cells as before, randomized and then treated with VX-970. VX-970 or vehicle treatment was initiated on the day of cell implantation. Tumor volume was monitored twice weekly and overall tumour incidence was assessed 40 days later. D. Bar chart of incidence 40 days after implantation of HCT116 ARID1A^+/+ and ARID1A^−/− cells. Each group contained 15 animals and fractions above bars indicate the number of animals in which a measurable xenograft formed. *p=0.027 Fisher's exact test. E and F. Tumor growth in experiment described in (C). *p=0.015 ANOVA. G. VX-970 dose response curves from TOV21G (ARID1A mutant) and RMG1 (ARID1A wildtype) cells. Cells were exposed to VX-970 for 5 days. […] PARP-1, cleaved PARP-1 (85 kDa fragment) and tubulin were detected by western blot. […] Caspase3/7 activity was assessed using Caspase-Glo and total cellular viability was estimated using CellTitre-Glo. Luminescence ratios for Caspase-Glo (i.e. apoptotic cells) and CellTitre-Glo (ie viable cells) was determined for each dose and normalized to DMSO treated samples. *Student's t-test, p<0.05. […]
In vivo efficacy studies were performed using HCT116 […], HCT116 ARID1A^−/− and TOV21G cells injected subcutaneously in the flank of female CD-1 Nude mice. […] Tumours were measured manually by calliper trice weekly and animals were sacrificed when tumours reached >15 mm in any direction.

[2] = test system: HCT116 ARID1A+/+ and ARID1A−/− cells; assay: Apoptosis assay (caspase-3/7 activity); format: cell-based, human; details: 24 hours exposure; p<0.05 Student's t-test
Description: as §1, with “Mice were inoculated with cells as before, randomized and then treated with VX-970. VX-970 or vehicle treatment was initiated on the day of cell implantation.” left out, “later.” for “later. D. Bar chart of incidence 40 days after implantation of HCT116 ARID1A^+/+ and ARID1A^−/− cells. Each group contained 15 animals and fractions above bars indicate the number of animals in which a measurable xenograft formed. *p=0.027 Fisher's exact test. E and F. Tumor growth in experiment described in (C). *p=0.015 ANOVA. G. VX-970 dose response curves from TOV21G (ARID1A mutant) and RMG1 (ARID1A wildtype) cells. Cells were exposed to VX-970 for 5 days.”
FIG. 5. […] The percentage of cells in G2/M was measured by FACS following PI staining. […] A minimum of 50 anaphases were scored in 3 biological replicate experiments. *p=0.023, Student's t-test. […]

TOV21G xenografts = assay: In vivo efficacy, established TOV21G xenografts; design: species or system mice; details: 60 mg/kg, 4x weekly oral gavage, 28 days; p=0.014 ANOVA

SMILES: CNCc1ccc(-c2cc(-c3nc(-c4ccc(S(=O)(=O)C(C)C)cc4)cnc3N)on2)cc1 [VX-970, 5-[4-(Isopropylsulfonyl)phenyl]-3-(3-{4-[(methylamino)methyl]phenyl}-1,2-oxazol-5-yl)-2-pyrazinamine]
- decrease in replication fork speed with SS18-SSX1 expression plus VX970 (HCT116 cells): enhanced by the addition of VX970
- growth of established ARID1A+/+ xenografts ([1]; 60 mg/kg, 4x weekly oral gavage, 40 days): no effect
- growth of ARID1A+/+ xenografts under continued treatment ([1]; non-established xenograft experiment, p=0.63 ANOVA): did not impair
- incidence of ARID1A+/+ xenografts ([1]; treatment from day of cell implantation, incidence 40 days later, 15 animals per group): 80%
- caspase-3/7 activation, ARID1A−/− vs ARID1A+/+ [2]: higher caspase-3/7 activation
- growth of established TOV21G tumours vs vehicle (TOV21G xenografts): significantly inhibited the growth
